Test results published in BindingDB's records for doi:10.7270/Q2S46QBK (The Scripps Research Institute Molecular Screening Center, 2008).

biological target: T1, Signal transducer and activator of transcription 3 [702-738,740-752] (Homo sapiens, UniProt P40763); assay: STAT3 activation reporter response, dose response, cell-based (AID 1398)
T1 construct: 702-738,740-752
T1 sequence (P40763 as listed by the source): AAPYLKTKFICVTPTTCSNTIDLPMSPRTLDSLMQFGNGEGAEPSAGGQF

Structure (SMILES) | IC50 [nM]
Cc1[nH]n(-c2ccccc2)c(=O)c1C=C1C(=O)NC(=O)NC1=O | > 55700
Cc1nonc1CC(=O)N1CCc2c([nH]c3ccccc23)C1c1ccccc1F (stereo not given) [1-[1-(2-fluorophenyl)-1,3,4,9-tetrahydropyrido[3,4-b]indol-2-yl]-2-(4-methyl-1,2,5-oxadiazol-3-yl)ethanone] | > 2060
CCCSc1nnc(Sc2nnnn2-c2ccccc2)s1 [2-(1-phenyltetrazol-5-yl)sulfanyl-5-propylsulfanyl-1,3,4-thiadiazole] | > 6190
Cn1c(CNc2ccccc2O)nc2ccccc21 [2-[(1-methyl-2-benzimidazolyl)methylamino]phenol] | > 8.49
Cc1cccc(NC(=O)c2cc([N+](=O)[O-])ccc2Cl)c1O [2-chloranyl-N-(3-methyl-2-oxidanyl-phenyl)-5-nitro-benzamide] | > 6190
Cn1nc(-c2ccc(Cl)cc2)c2cc(C(=O)NCCCN3CCCC3)sc21 [3-(4-chlorophenyl)-1-methyl-N-(3-pyrrolidin-1-ylpropyl)thieno[2,3-c]pyrazole-5-carboxamide] | > 6190
COC(=O)C(NC=O)C(O)(Cc1ccccc1)C(F)(F)F (stereo not given) [3-benzyl-4,4,4-trifluoro-2-formamido-3-hydroxy-butyric acid methyl ester] | > 688
COC(=O)c1sccc1NC(=O)c1cc2c(s1)CCCC2 [MLS000051746] | > 2060
COc1ccccc1C(=O)Nc1cc(Cl)ccc1O [MLS000078111] | > 2060
CC(=O)Nc1c(Cl)n(C(C)=O)c2ccccc12 [MLS000104263] | > 76
CCCc1cc(C(=O)Nc2cc(OC)c(Cl)cc2OC)no1 [MLS000116379] | > 229
COc1cc(NC(=O)c2cc(C(C)C)on2)c(OC)cc1Cl [MLS000520019] | > 229
COc1cc(NC(=O)c2cc(C3CC3)on2)c(OC)cc1Cl [MLS000522376] | > 76
Nc1nc(-c2ccc(Cl)cc2)nn1C(=O)c1cccs1 [MLS000706198] | > 688
COc1ccccc1NC(=O)c1[nH]c(C)c(C(C)=O)c1C [SMR000066913] | > 25.5
